Measured values as given in ChEMBL document CHEMBL5728364, “Compounds as autotaxin inhibitors and pharmaceutical compositions comprising the same” (2021).

molecular target: Autotaxin (Homo sapiens, UniProt Q13822); test: Inhibitory Activity Assay: Two-fold dilution of each test compound solution (10 μM, 100% dimethyl sulfoxide) is carried out on 96-well V bottom plate (Costar 3363). After ten-fold dilution of each the test compound solution (100% dimethyl sulfoxide) with deionized distilled water, 10 μL of the diluted each mpound solution (10% dimethyl sulfoxide) was aliquoted to a black flat bottom 96-well plate (Costar 3915). 50 μL of 1.6× Assay solution (224 mM NaCl, 80 mM Tris-HCl (pH 8.0), 8 mM KCl, 1.6 mM CaCl2, 1.6 mM MgCl2, and 1.6 mg/mL fatty acid free BSA) was added thereto, and subsequently 20 μL of 20 nM human ENPP2 solution (buffer solution: 140 mM NaCl, 50 mM Tris-HCl (pH 8.0), 5 mM KCl, 1 mM CaCl2, 1 mM MgCl2, and 1 mg/mL fatty acid free BSA) and 20 μL of 5 μM FS-3 solution (buffer solution:deionized distilled water) were added thereto, respectively, followed by mixing.

Row | IC50 | Structure (SMILES)
1 | 4.6 nM | NS(=O)(=O)NC1CCN(C(=O)Cc2nnc(-c3cnc(NC4Cc5ccccc5C4)nc3)o2)C1 (centres undefined)
2 | 2.9 nM | O=C(Cn1cc(-c2cnc(NCc3cccc(OC(F)(F)F)c3)nc2)nn1)N1CCc2[nH]nnc2C1
3 | 2.9 nM | O=C(NCCN1CCN(c2cnc(NC3Cc4ccccc4C3)nc2)CC1)c1ccc2[nH]c(=O)oc2c1
4 | 2.5 nM | O=C(Cc1nc(-c2cnc(NC3Cc4ccccc4C3)nc2)no1)N1CCc2[nH]nnc2C1
